Reference: patent publication US10035780B2, “Quinazoline scaffold based compounds, pharmaceutical compositions and methods of use thereof” (TECHNION RESEARCH & DEVELOPMENT FOUNDATION LTD., priority 2014, dated 2018)
Entries after “also recorded” stand apart in the source; their conditions may differ. Read-outs that look alike come from different tables or passages of the source.

Assays:
[1] = target: TSPO (Homo sapiens (Human), UniProt P30536); format: binding
Procedure: Briefly, the assay utilizes radioactive standard ligand [^3H] PK 11195 (1-(2-chlorophenyl)-N-methyl-N-(1-methyl-propyl)-3 isoquinolinecarboxamide), and measures the ability of the compounds of the invention to displace standard ligand in binding to TSPO. Total radioactive binding was determined by measuring the radioactivity of the radioactive ligand-receptor complex, obtained in the reaction of radioactive standard with the TSPO. Radioactive standard and the examined compound were added to the TSPO and after some incubation time the radioactivity of the resulting ligand-receptor complexes was measured with the help of a […]. This radioactivity indicates the binding of the radioactive standard to TSPO. […] This can be expressed as the half maximal inhibitory concentration (IC50), which is a measure of the effectiveness of a compound in inhibiting biological or biochemical function, in this case inhibiting binding of standard radioactive ligand binding to the TSPO. A derivative of the IC50 is the Ki, which is the calculated binding affinity of the novel compound to the TSPO.
Binding to TSPO was evaluated using a [^3H]PK 11195 radio-assay, as described above.

[2] = system: U118MG cells; experiment: Protection against cell death induced by glutamate in U118MG cell culture; format: cell-based, human; settings: for protection against cell death induced by glutamate: U118MG cells, 35 mM glutamate, compound 1-100 μM; for Protection against glutamate-induced cell death: cell culture, grade in words; for lethal effects of compound at high concentration: 100 μM compound alone; for lethal effects of compound at high concentration / cell death effect of glutamate at high compound concentration: halogenated vs unhalogenated analog; for cell death effect of glutamate at high compound concentration: glutamate plus 100 μM compound
Procedure: Cell cultures of various human glial type cell lines (T98G, U87MG, A172, U118MG), as well as human neuronal type cell lines SH-SY 5Y and Be(2)-C were used to test the new compounds. In addition, the rat glioma cell line C6 was used. PC12 cells originating from rats were used as another cell line displaying neuronal characteristics. The applicants also have produced, by genetic manipulation, a modified rat C6 glial cell strain and a modified human U118MG glial type cell strain, both under-expressing the TSPO, which allows to study TSPO specific effects, including of the compounds of the invention, which can be done according to methods described previously (Weisinger et al. Biochemistry. 2004; 43:12315-21; Levin et al. 2005; Zeno et al., 2009).
The protective capabilities of the compounds of the invention and involvement of the TSPO were tested in cell culture, using cell lines of glial and neuronal type, cultured and testing according to standard methods (Kugler et al. 2008; Zeno et al. 2009; Dadon-Nachum et al. Stem Cell Rev. 2011; 7:664-71). Furthermore, primary cell cultures are also used (Banker, G. et al. Culturing Nerve Cells, 2nd Edition, The MIT Press (1998). Treatments included: (1) exposure to glutamate (35 mM), Abeta(1-42), NH4Cl, CoCl2, and nitric oxide (NO) donors, in order to mimic particular aspects of neurodegeneration; (2) treatment with the novel compounds and with traditional TSPO ligands as comparative treatment; and (3) TSPO knockdown by genetic manipulation.
(§1) Techniques and parameters assayed are summarized here: Total protein levels (Bradford. Anal Biochem. 1976; 72:248-54); TSPO ligand binding assays (Kugler et al. 2008; Levin et al. 2005; Danovich et al. Eur Neuropsychopharmacol. 2008; 18:24-33) cell death, including apoptosis and necrosis and related molecular biological processes (Soustiel et al. Neuropathol Appl Neurobiol. 2008; 34:412-23; Soustiel et al. Exp Neurol. 2008; 214:201-8; Zeno et al. 2009); mitochondrial transmembrane potential collapse (Chelli et al. Biochem Pharmacol. 2004; 68:125-34; Kugler et al. 2008; Zeno et al., 2009; Shargorodsky et al. Apoptosis. 2012; 17:647-65), reactive oxygen species (ROS) generation as a measure of oxidative stress (Veenman et al. 2008; Zeno et al. 2009); TSPO knockdown (Levin et al. 2005; Zeno et al. 2009); expression levels of mitochondrial TSPO and associated proteins (Veenman et al. 2002; Levin et al. 2005; Veenman et al. 2008); gene expression with RT-PCR and microarray analysis (Bode et al. 2012; Veenman et al. 2012). Parameters of inflammation, immune response, migration, and the cell cycle are also tested. All these approaches can also be applied for quality control of the compounds.
The compounds of the invention protect against cell death induced by glutamate in cell culture of U118MG cells of astrocytic origin (FIGS. 1, 2, 3 and 8) or SH SY 6Y cells of neuronal origin (FIG. 4). […] In the control group, 35 mM of glutamate killed ˜60% of the cells.
The experimental setup is explained using FIG. 8B as an example: • 1. Control: Cell death levels are taken as 0% • 2. Glu: Cell death levels induced by glutamate are over 50% • 3. […] Glu+Cpd 5: When Cpd 5 is given as a treatment to counteract cell death induced by glutamate, increasing concentrations of Cpd 5 reduce cell death levels from over 50% to less than 5%.

[3] = system: R6-2 mice; experiment: Lifespan of R6-2 mice, transgenic model for Huntington Disease; format: in vivo, mouse; settings: for effect on lifespan: daily s.c. injections 5 days a week from week 5, vs DMSO and saline
Text: For the assays described herein systemic injections of kainic in rats were applied and also contusion (Veenman et al. 2002; Soustiel et al. Neuropathol Appl Neurobiol. 2008; Soustiel et al. Exp Neurol. 2008). These models present very well defined cell death in the brain. Cell death in the brain is the major pathological characteristic of progressing neurodegeneration common to brain diseases. As the compounds of the present invention are designed to prevent cell death in the brain as a consequence of disease and progressing brain damage after injury, including behavioral impairments, animal models displaying cell death in the brain are the models of choice for displaying the protective capabilities of the compounds of the invention. For these reasons the R6-2 model for Huntington Disease was chosen to test the effectiveness of Compound 1 and to compare the effectiveness of Compound 1 with those of the compound of U.S. Pat. No. 8,541,428 (Cpd A) and with the classical TSPO ligand PK 11195, as well as other compounds disclosed herein. Compounds 5 and 6 were also tested in the same R6-2 model.
R6-2 is a transgenic mouse model for Huntington Disease. Huntington Disease in humans is a hereditary neurodegenerative disease affecting motor performance and finally leading to death of the patients having the disease. R6-2 mice (˜120 CAG repeats B6CBA-Tg(HDexon1)62 Gpb/3J) mice were used for the experiments described below. For this purpose, mice obtained from the Jackson Laboratory (ME) were bred. In particular: males genotype: Hemizygous for Tg(HDexon1)62 Gpb, and females from the wildtype background strain B6CBAF1/J were bred according to the protocol of Jackson Laboratory. The male heterozygote offspring (R6-2 mice) were used for determining life span and motor activity, with and without drug treatment. Drug treatment consisted of daily (5 continuous days a week) subcutaneous injections of mice with 20 μl of: saline (sham control), vehicle DMSO (vehicle control), classic TSPO ligand PK 11195 (15 mg/kg), prior art Compound A (15 mg/kg), Compound 1 (15 mg/kg), and compound 1 (7.5 mg/kg). Drug treatment started on week 5 after birth. Quantities were used according to previous studies regarding TSPO ligands.
(§2) Apart from the behavioral experiments, mice were observed daily, and the day of death was noted. Behavioral experiments included distance covered in an open field apparatus, and tremor measurements.
R6-2 mice were used as previously described in Example 5. In one experiment, treatment consisted of daily (5 continuous days per week) subcutaneous injections of mice with 20 μl of vehicle DMSO (control, n=10) and Compound 6 (7.5 mg/kg, n=12). In a separate experiment, compound 5 (7.5 mg/kg, n=5) was tested, compared to DMSO control (n=5).

[4] = system: R6-2 mice; experiment: Incidence of tremor in R6-2 mice; format: in vivo, mouse
Text: as §2
To assay incidence of tremor in R6-2 mice of the experiments for this invention, the StartleMonitor of Kinder Scientific (Poway, Calif.), with specific software to assay and present force pressure changes in newtons, was used.

[5] = system: U118MG cells; experiment: Collapse of the mitochondrial membrane potential (ΔΨm) induced by glutamate; format: cell-based, human; settings: glutamate exposed cells
Text: as §1
Compound 1 is very effective at a concentration of 25 μM in this model (in order to achieve the same effect with the classical TSPO ligand PK 11195 a concentration of 50 μM has to be applied (data not shown).

[6] = displacement of [3H]PK 11195 from TSPO
[7] = binding affinity to the TSPO, unit given as nm

TSPO, sequence (P30536 whole entry): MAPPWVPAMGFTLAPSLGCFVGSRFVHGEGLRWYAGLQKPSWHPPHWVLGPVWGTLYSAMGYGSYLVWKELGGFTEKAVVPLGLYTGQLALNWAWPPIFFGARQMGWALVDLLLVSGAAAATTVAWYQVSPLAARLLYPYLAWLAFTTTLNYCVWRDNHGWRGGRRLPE

Compound | Ki [1, 6] [nM] | protection against cell death induced by glutamate [2] | Protection against glutamate-induced cell death [2] | effect on lifespan [3] | other results
CCN(CC)C(=O)Oc1nc(-c2ccc(F)c(Cl)c2)nc2ccccc12 [Compound 2, 2-(3-chloro-4-fluorophenyl)quinazolin-4-yl diethylcarbamate] | ~380 | strong protective properties | Good |  | protection against cell death induced by glutamate ([2]; listed as compound 2): protective properties
CCN(CC)C(=O)Oc1nc(-c2c(Cl)cccc2Cl)nc2ccccc12 [Compound 3, 2-(2,6-dichlorophenyl)quinazolin-4-yl diethylcarbamate] | ~1510 | good protective properties | Good |  | protection against cell death induced by glutamate ([2]; listed as compound 3): protective properties
CN(C)C(=O)Oc1nc(-c2ccccc2Cl)nc2ccccc12 [Compound 5, 2-(2-chlorophenyl)quinazolin-4-yl dimethylcarbamate] | ~600 | protect better and more consistently; also recorded: superior over the rest of the compounds | Excellent | increase the average lifespan; also recorded: extends the life span | mice living up to 18 weeks ([3]; 7.5 mg/kg s.c.): 20%; mice still alive at 11th week ([3]; 7.5 mg/kg s.c., >50% of DMSO mice dead): 100%; mice still alive at 12 weeks ([3]; 7.5 mg/kg s.c., all DMSO mice dead): 50%; effect on lifespan ([3]; listed as compound 5): robust lifespan enhancing; lethal effects of compound at high concentration [2]: reduces lethal effects; also recorded: reduces cell death effects; also recorded: least adverse side effects; protection against cell death induced by glutamate ([2]; listed as Cpd 5): improves protection; cell death levels induced by compound by itself ([2]; compound alone, no glutamate): ≤ 5%; cell death effect of glutamate at high compound concentration [2]: reduces cell death effect of glutamate in cultures even further; cell death levels, Glu + compound ([2]; glutamate plus increasing concentrations of compound, glutamate alone over 50%): less than 5%; incidence of tremor activity [4]: tremor reducing effects; also recorded: reduced the incidence of tremor activity
CCN(CC)C(=O)Oc1nc(-c2ccccc2)nc2ccccc12 [Compound 7, 2-phenylquinazolin-4-yl diethylcarbamate] | ~2.5 |  | Good |  | Ki [1, 7]: ~2.5 nM
CCN(CC)C(=O)Oc1nc(-c2ccccc2Cl)nc2ccccc12 [Compound 8, 2-(2-chlorophenyl)quinazolin-4-yl diethylcarbamate] | ~2.5 | improves protection | Good |  | lethal effects of compound at high concentration [2]: reduces lethal effects; lethal effects of compound at high concentration ([2]; listed as Cpd 8): reduces cell death effects; cell death effect of glutamate at high compound concentration [2]: reduces cell death effect of glutamate in cultures even further
CN(C)C(=O)Oc1nc(-c2ccccc2)nc2ccccc12 [Compound A, reference compound] | ~600 | significantly less efficacious | Good | indistinguishable from vehicle treated mice; also recorded: had no such effects; also recorded: has no effect | Ki [1, 7]: ~600 nM
CCC(C)N(C)C(=O)c1cc2ccccc2c(-c2ccccc2Cl)n1 (centres unmarked) [PK 11195, 1-(2-chlorophenyl)-N-methyl-N-(1-methyl-propyl)-3 isoquinolinecarboxamide, reference compound] |  |  |  | indistinguishable from vehicle; also recorded: had no such effects; also recorded: has no effect at all | concentration very effective in preventing ΔΨm collapse [5]: 50 µM
